How the values were obtained:
[1] = tested on: field corn; assay: Pot test, soil spray after sowing: crop injury on field corn; assay type: in vivo, Zea mays var. indentata and/or Zea mays var. indurata
From the text: (§1) The evaluation of the herbicidal effect and crop injury is classified into 0 to 100, where the numeral “0” indicates no or little difference in the state of germination or growth of weeds or corn under test at the time of examination as comparison with untreated weeds or corn, respectively and the numeral “100” indicates the complete death of weeds or corn under test or the complete inhibition of their germination or growth of weeds or corn under test.
(§2) Three varieties of field corn, two varieties of popcorn, two varieties of sweet corn, two varieties of waxy corn, palmer amaranth, kochia and large crabgrass were sown to a pot filled with a soil. On the next day, a trifludimoxazin spray liquid (prepared by diluting an emuslfiable concentrate of trifludimoxazin with water) was uniformly sprayed onto the pot at the amount of 200 L per hectare so that the application rate of trifludimoxazin might be 50 g per hectare. 12 days after treatment, herbicidal effects on weeds and injury on corns were investigated. As a result, the herbicidal effect on each of the three weeds was 100.
as §2, with “Four” for “Three”, “sweet” for “sweet corn, two varieties of waxy”, “25” for “50”, “13” for “12”

[2] = tested on: popcorn; assay: Pot test, soil spray after sowing: crop injury on popcorn; assay type: in vivo, Zea mays var. everta
From the text: as §1, §2
as §2, with “Four” for “Three”, “sweet” for “sweet corn, two varieties of waxy”, “25” for “50”, “13” for “12”

[3] = tested on: sweet corn; assay: Pot test, soil spray after sowing: crop injury on sweet corn; assay type: in vivo, Zea mays var. saccharata
From the text: as §1, §2
as §2, with “Four” for “Three”, “sweet” for “sweet corn, two varieties of waxy”, “25” for “50”, “13” for “12”

[4] = tested on: waxy corn; assay: Pot test, soil spray after sowing: crop injury on waxy corn; assay type: in vivo, Zea mays var. ceratina; conditions: 50 g/ha, 12 days after treatment
From the text: as §1, §2

[5] = tested on: palmer amaranth; assay: Pot test, soil spray after sowing: herbicidal effect on palmer amaranth; assay type: in vivo, Amaranthus palmeri
From the text: as §1, §2
(§3) Four varieties of field corn, two varieties of popcorn, two varieties of sweet corn, palmer amaranth, kochia and large crabgrass were sown to a pot filled with a soil. […]

[6] = tested on: kochia; assay: Pot test, soil spray after sowing: herbicidal effect on kochia; assay type: in vivo, Kochia scoparia
From the text: as §1, §2, §3

[7] = tested on: large crabgrass; assay: Pot test, soil spray after sowing: herbicidal effect on large crabgrass; assay type: in vivo, Digitaria sanguinalis
From the text: as §1, §2, §3

[8] = tested on: palmer amaranth, waterhemp, kochia, common ragweed and marestail; assay: Example 1 pot test, spray two days after sowing: herbicidal effects on weeds; assay type: in vivo; conditions: 25 or 50 g per hectare; applied two days after sowing; 21 days after the treatment
From the text: as §1
(§4) A pot is filled with a soil, and then field corn, popcorn, sweet corn, waxy corn, palmer amaranth, waterhemp, kochia, common ragweed and marestail are sown thereto. Two days later, trifludimoxazin spray liquid (prepared by diluting trifludimoxazin formulation (an aqueous suspension concentrate containing 500 g/L of trifludimoxazin) with water) is uniformly applied onto the pot using sprayer at the amount of 200 L per hectare so that the application rate of trifludimoxazin may be 25 or 50 g per hectare. 21 days after the treatment, herbicidal effects and injuries on various corns are investigated.

[9] = tested on: field corn, popcorn, sweet corn, waxy corn; assay: Example 1 pot test, spray two days after sowing: injuries on various corns; assay type: in vivo, Zea mays; conditions: 25 or 50 g per hectare; applied two days after sowing; 21 days after the treatment
From the text: as §1, §4

[10] = tested on: palmer amaranth, waterhemp, kochia, common ragweed and marestail; assay: Example 2 pot test, spray the day before sowing corns: herbicidal effects on weeds; assay type: in vivo; conditions: 25 or 50 g per hectare; applied on day of weed sowing, corns sown next day; 21 days after sowing corns
From the text: as §1
as §4, with “Palmer” for “field corn, popcorn, sweet corn, waxy corn, palmer”, “On the same day,” for “Two days later,”, “hectare. On the next day, field corn, popcorn, sweet corn, and waxy corn are sown.” for “hectare.”, “sowing corns,” for “the treatment,”

[11] = tested on: field corn, popcorn, sweet corn, and waxy corn; assay: Example 2 pot test, spray the day before sowing corns: injuries on various corns; assay type: in vivo, Zea mays; conditions: 25 or 50 g per hectare; applied the day before sowing corns; 21 days after sowing corns
From the text: as §1
as §4, with “Palmer” for “field corn, popcorn, sweet corn, waxy corn, palmer”, “On the same day,” for “Two days later,”, “hectare. On the next day, field corn, popcorn, sweet corn, and waxy corn are sown.” for “hectare.”, “sowing corns,” for “the treatment,”

[12] = 25 g per hectare, 13 days after treatment
[13] = 50 g per hectare, 12 days after treatment

Q: For C#CCN1C(=O)C(F)(F)Oc2cc(F)c(-n3c(=O)n(C)c(=S)n(C)c3=O)cc21 [trifludimoxazin], which “Injury score on corn (0 to 100)” value ([1]; Field corn DKC5632, 25 g/ha, 13 days after treatment) is on record?
A: The value was 0.

Q: What about the “Injury score on corn (0 to 100)” value ([1]; Field corn DKC5632, 50 g/ha, 12 days after treatment) of the same compound?
A: The value was 10.

Q: What about the “Injury score on corn (0 to 100)” value ([1]; Field corn Koshu, 25 g/ha, 13 days after treatment) of the same compound?
A: Its value is 0.

Q: What about the “Injury score on corn (0 to 100)” value ([1]; Field corn Koshu, 50 g/ha, 12 days after treatment) of the same compound?
A: The value was 5.

Q: What about the “Injury score on corn (0 to 100)” value ([1]; Field corn MAS40F, 25 g/ha, 13 days after treatment) of the same compound?
A: The value was 5.

Q: And the “Injury score on corn (0 to 100)” value ([1]; Field corn Pioneer 2088, 25 g/ha, 13 days after treatment)?
A: The value was 0.

Q: And the “Injury score on corn (0 to 100)” value ([1]; Field corn Pioneer 2088, 50 g/ha, 12 days after treatment)?
A: The value was 5.

Q: And the “Injury score on corn (0 to 100)” value ([2]; Popcorn Maru-pop, 25 g/ha, 13 days after treatment)?
A: The value was 20.

Q: And the “Injury score on corn (0 to 100)” value ([2]; Popcorn Maru-pop, 50 g/ha, 12 days after treatment)?
A: The value was 50.

Q: And the “Injury score on corn (0 to 100)” value ([2]; Popcorn Yuki-pop, 25 g/ha, 13 days after treatment)?
A: Its value is 20.

Q: What about the “Injury score on corn (0 to 100)” value ([2]; Popcorn Yuki-pop, 50 g/ha, 12 days after treatment) of the same compound?
A: The value was 40.

Q: And the “Injury score on corn (0 to 100)” value ([3]; Sweet corn Ohisama, 25 g/ha, 13 days after treatment)?
A: The value was 20.

Q: What about the “Injury score on corn (0 to 100)” value ([3]; Sweet corn Ohisama, 50 g/ha, 12 days after treatment) of the same compound?
A: The value was 40.

Q: And the “Injury score on corn (0 to 100)” value ([3]; Sweet corn Rancher 82, 25 g/ha, 13 days after treatment)?
A: The value was 30.

Q: What about the “Injury score on corn (0 to 100)” value ([3]; Sweet corn Rancher 82, 50 g/ha, 12 days after treatment) of the same compound?
A: The value was 30.

Q: And the “Injury score on corn (0 to 100)” value ([4]; Waxy corn Ki-mochi)?
A: The value was 30.

Q: And the “Injury score on corn (0 to 100)” value ([4]; Waxy corn Shiro-mochi)?
A: The value was 40.

Q: What about the “herbicidal effect (0 to 100)” value [5, 12] of the same compound?
A: Its value is 100.

Q: And the “herbicidal effect (0 to 100)” value [5, 13]?
A: The value was 100.

Q: What about the “herbicidal effect (0 to 100)” value [6, 12] of the same compound?
A: Its value is 100.

Q: What about the “herbicidal effect (0 to 100)” value [6, 13] of the same compound?
A: Its value is 100.

Q: And the “herbicidal effect (0 to 100)” value [7, 12]?
A: The value was 100.

Q: And the “herbicidal effect (0 to 100)” value [7, 13]?
A: The value was 100.

Q: What about the “herbicidal effects on all weeds” value [8] of the same compound?
A: Its value is “High herbicidal effects”.

Q: What about the “injury on field corn compared with popcorn, sweet corn and waxy corn” value [9] of the same compound?
A: The value was “less than those on popcorn, sweet corn and waxy corn”.

Q: And the “herbicidal effects on all weeds” value [10]?
A: Its value is “High herbicidal effects”.

Q: And the “injury on field corn compared with popcorn, sweet corn and waxy corn” value [11]?
A: Its value is “less than those on popcorn, sweet corn and waxy corn”.
